Experimental data reported in patent US9688627B2, “Lactam compounds as EP4 receptor-selective agonists for use in the treatment of EP4-mediated diseases and conditions” (Cayman Chemical Company, Inc., priority 2013, dated 2017).

Columns and labels:
rat EP4 receptor = target: T1, rat EP4 receptor (Rattus norvegicus, UniProt P43114); test: SEAP activity assay on EP4 STEP plate; type: cell-based; conditions: SEAP luminescence, 6-8 hours of stimulation; read-out: STEP cell functional assay EC50 SEAP/EP4
T1 construct: cells seeded on STEP plates
From the text: (§1) 2. […] In addition each concentration had triplicates. […] 4. […] Cover the plate with the lid. […] 6. […] 7. […] 8.

rat EP2 receptor = target: T2, rat EP2 receptor (Rattus norvegicus, UniProt Q62928); test: SEAP activity assay on EP2 STEP plate; type: cell-based; conditions: SEAP luminescence, 6-8 hours of stimulation; read-out: STEP cell functional assay EC50 SEAP/EP2
T2 construct: cells seeded on STEP plates
From the text: as §1

T2 sequence (Q62928 whole entry): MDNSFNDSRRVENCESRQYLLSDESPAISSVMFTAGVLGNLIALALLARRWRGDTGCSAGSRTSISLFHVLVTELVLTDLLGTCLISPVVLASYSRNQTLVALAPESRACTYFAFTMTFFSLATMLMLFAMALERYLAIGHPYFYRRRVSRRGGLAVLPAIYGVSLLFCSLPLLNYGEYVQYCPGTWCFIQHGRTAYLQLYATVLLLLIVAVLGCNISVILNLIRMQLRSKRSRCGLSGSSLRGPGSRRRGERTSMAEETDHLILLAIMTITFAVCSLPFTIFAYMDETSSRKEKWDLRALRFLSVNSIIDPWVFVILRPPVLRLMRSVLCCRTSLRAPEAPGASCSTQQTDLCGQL
T1 sequence (P43114 whole entry): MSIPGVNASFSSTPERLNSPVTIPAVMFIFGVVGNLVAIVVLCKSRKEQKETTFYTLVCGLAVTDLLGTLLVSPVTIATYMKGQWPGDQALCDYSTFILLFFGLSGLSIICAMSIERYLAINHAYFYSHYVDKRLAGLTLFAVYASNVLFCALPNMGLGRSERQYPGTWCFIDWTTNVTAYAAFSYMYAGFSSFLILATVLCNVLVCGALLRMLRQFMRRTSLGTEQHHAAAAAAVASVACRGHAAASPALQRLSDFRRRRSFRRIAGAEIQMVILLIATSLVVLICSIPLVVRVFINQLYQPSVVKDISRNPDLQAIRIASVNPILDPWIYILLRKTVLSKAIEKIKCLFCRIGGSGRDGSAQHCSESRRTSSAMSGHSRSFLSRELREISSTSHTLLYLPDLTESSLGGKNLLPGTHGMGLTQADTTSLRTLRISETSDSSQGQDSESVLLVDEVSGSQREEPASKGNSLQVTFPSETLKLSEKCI

SMILES	EC50 (rat EP4 receptor) [nM]	EC50 (rat EP2 receptor) [nM]
CCC#CCC(C)[C@@H](O)/C=C/[C@H]1CCC(=O)N1CCCCCCC(=O)O (mixture of isomers) [Example 2D, 7-((2R)-2-((3R,4R/S,E)-3-hydroxy-4-methylnon-1-en-6-yn-1-yl)-5-oxopyrrolidin-1-yl)heptanoic acid]	0.145	1420
CCCC#CCC(C)[C@H](O)/C=C/[C@H]1CCC(=O)N1CCCCCCC(=O)OC (mixture of isomers) [Example 3A, methyl 7-((2R)-2-((3S,4R/S,E)-3-hydroxy-4-methyldec-1-en-6-yn-1-yl)-5-oxopyrrolidin-1-yl)heptanoate]	8.64	2490
CCCC#CCC(C)[C@@H](O)/C=C/[C@H]1CCC(=O)N1CCCCCCC(=O)OC (mixture of isomers) [Example 3B, methyl 7-((2R)-2-((3R,4R/S,E)-3-hydroxy-4-methyldec-1-en-6-yn-1-yl)-5-oxopyrrolidin-1-yl)heptanoate]	223	> 10000
CCCC#CCC(C)[C@H](O)/C=C/[C@H]1CCC(=O)N1CCCCCCC(=O)O (mixture of isomers) [Example 3C, 7-((2R)-2-((3S,4R/S,E)-3-hydroxy-4-methyldec-1-en-6-yn-1-yl)-5-oxopyrrolidin-1-yl)heptanoic acid]	0.085	2260
CCCC#CCC(C)[C@@H](O)/C=C/[C@H]1CCC(=O)N1CCCCCCC(=O)O (mixture of isomers) [Example 3D, 7-((2R)-2-((3R,4R/S,E)-3-hydroxy-4-methyldec-1-en-6-yn-1-yl)-5-oxopyrrolidin-1-yl)heptanoic acid]	29	> 10000
CC(CC#Cc1ccccc1)[C@H](O)/C=C/[C@H]1CCC(=O)N1CCCCCCC(=O)O (mixture of isomers) [Example 4C, 7-((2R)-2-((3S,4R/S,E)-3-hydroxy-4-methyl-7-phenylhept-1-en-6-yn-1-yl)-5-oxopyrrolidin-1-yl)heptanoic acid]	2.49	830
CC#CCC(C)[C@H](O)/C=C/[C@H]1CCC(=O)N1CCc1ccc(C(=O)OC)cc1 (mixture of isomers) [Example 8A, methyl 4-(2-((2R)-2-((3S,4R/S,E)-3-hydroxy-4-methyloct-1-en-6-yn-1-yl)-5-oxopyrrolidin-1-yl)ethyl)benzoate]	6.74	364
CC#CCC(C)[C@@H](O)/C=C/[C@H]1CCC(=O)N1CCc1ccc(C(=O)OC)cc1 (mixture of isomers) [Example 8B, methyl 4-(2-((2R)-2-((3R,4R/S,E)-3-hydroxy-4-methyloct-1-en-6-yn-1-yl)-5-oxopyrrolidin-1-yl)ethyl)benzoate]	1640	
CC#CCC(C)[C@@H](O)/C=C/[C@H]1CCC(=O)N1CCc1ccc(C(=O)O)cc1 (mixture of isomers) [Example 8D, 4-(2-((2R)-2-((3R,4R/S,E)-3-hydroxy-4-methyloct-1-en-6-yn-1-yl)-5-oxopyrrolidin-1-yl)ethyl)benzoic acid]	13.4	1130
CC(CC#Cc1ccccc1)[C@H](O)/C=C/[C@H]1CCC(=O)N1CCc1ccc(C(=O)O)cc1 (mixture of isomers) [Example 11C, 4-(2-((2R)-2-((3S,4R/S,E)-3-hydroxy-4-methyl-7-phenylhept-1-en-6-yn-1-yl)-5-oxopyrrolidin-1-yl)ethyl)benzoic acid]	0.054	2960
CC(CC#Cc1ccccc1)[C@@H](O)/C=C/[C@H]1CCC(=O)N1CCc1ccc(C(=O)O)cc1 (mixture of isomers) [Example 11D, 4-(2-((2R)-2-((3R,4R/S,E)-3-hydroxy-4-methyl-7-phenylhept-1-en-6-yn-1-yl)-5-oxopyrrolidin-1-yl)ethyl)benzoic acid]	3.51	1750
CC#CCC(C)[C@H](O)/C=C/[C@H]1CCC(=O)N1Cc1ccc(CC(=O)O)cc1 (mixture of isomers) [Example 12C, 2-(4-(((2R)-2-((3S,4R/S,E)-3-hydroxy-4-methyloct-1-en-6-yn-1-yl)-5-oxopyrrolidin-1-yl)methyl)phenyl)acetic acid]	2290	> 10000
CC#CCC(C)[C@@H](O)/C=C/[C@H]1CCC(=O)N1Cc1ccc(CC(=O)O)cc1 (mixture of isomers) [Example 12D, 2-(4-(((2R)-2-((3R,4R/S,E)-3-hydroxy-4-methyloct-1-en-6-yn-1-yl)-5-oxopyrrolidin-1-yl)methyl)phenyl)acetic acid]	> 10000	> 10000
CCC#CCC(C)[C@H](O)/C=C/[C@H]1CCC(=O)N1C/C=C\c1ccc(C(=O)O)s1 (mixture of isomers) [Example 15C, 5-((Z)-3-((2R)-2-((3S,4R/S,E)-3-hydroxy-4-methylnon-1-en-6-yn-1-yl)-5-oxopyrrolidin-1-yl)prop-1-en-1-yl)thiophene-2-carboxylic acid]	947	> 10000
CCC#CCC(C)[C@@H](O)/C=C/[C@H]1CCC(=O)N1C/C=C\c1ccc(C(=O)O)s1 (mixture of isomers) [Example 15D, 5-((Z)-3-((2R)-2-((3R,4R/S,E)-3-hydroxy-4-methylnon-1-en-6-yn-1-yl)-5-oxopyrrolidin-1-yl)prop-1-en-1-yl)thiophene-2-carboxylic acid]	1600	> 10000
CC(CC#Cc1ccccc1)[C@H](O)/C=C/[C@H]1CCC(=O)N1C/C=C\c1ccc(C(=O)O)s1 (mixture of isomers) [Example 16C, 5-((Z)-3-((2R)-2-((3S,4R/S,E)-3-hydroxy-4-methyl-7-phenylhept-1-en-6-yn-1-yl)-5-oxopyrrolidin-1-yl)prop-1-en-1-yl)thiophene-2-carboxylic acid]	67.2	> 10000

SMILES	EC50 (rat EP4 receptor) [nM]	EC50 (rat EP2 receptor) [nM]
CC(CC#Cc1ccccc1)[C@@H](O)/C=C/[C@H]1CCC(=O)N1C/C=C\c1ccc(C(=O)O)s1 (mixture of isomers) [Example 16D, 5-((Z)-3-((2R)-2-((3R,4R/S,E)-3-hydroxy-4-methyl-7-phenylhept-1-en-6-yn-1-yl)-5-oxopyrrolidin-1-yl)prop-1-en-1-yl)thiophene-2-carboxylic acid]	1200	> 10000
COC(=O)CCCCCCN1C(=O)CC[C@@H]1/C=C/[C@@H](O)CCC#Cc1ccccc1 (single isomer, unassigned) [Example 5A]	77.7	> 10000
COC(=O)CCCCCCN1C(=O)CC[C@@H]1/C=C/[C@H](O)CCC#Cc1ccccc1 (single isomer, unassigned) [Example 5B]	41.5	> 5000
CCC#C[C@H](O)/C=C/[C@H]1CCC(=O)N1CCCCCCC(=O)OC (single isomer, unassigned) [Example 6A]	6.71	> 3000
CCC#C[C@@H](O)/C=C/[C@H]1CCC(=O)N1CCCCCCC(=O)OC (single isomer, unassigned) [Example 6B]		> 2000
CCC#CC[C@@H](C)[C@H](O)/C=C/[C@H]1CCC(=O)N1CCCCCCC(=O)O [Example 2F, 7-((R)-2-((3S,4R,E)-3-hydroxy-4-methylnon-1-en-6-yn-1-yl)-5-oxopyrrolidin-1-yl)heptanoic acid]	1.06 ± 0.11	
O=C(O)CCCCCCN1C(=O)CC[C@@H]1/C=C/[C@@H](O)CCC#Cc1ccccc1 [Example 5C, 7-((R)-2-((3S,E)-3-hydroxy-7-phenylhept-1-en-6-yn-1-yl)-5-oxopyrrolidin-1-yl)heptanoic acid]	111	
O=C(O)CCCCCCN1C(=O)CC[C@@H]1/C=C/[C@H](O)CCC#Cc1ccccc1 [Example 5D, 7-((R)-2-((3R,E)-3-hydroxy-7-phenylhept-1-en-6-yn-1-yl)-5-oxopyrrolidin-1-yl)heptanoic acid]	46.8	
CCC#C[C@H](O)/C=C/[C@H]1CCC(=O)N1CCCCCCC(=O)O [Example 6C, 7-((R)-2-((R,E)-3-hydroxyhept-1-en-4-yn-1-yl)-5-oxopyrrolidin-1-yl)heptanoic acid]	4.73	
CCC#C[C@@H](O)/C=C/[C@H]1CCC(=O)N1CCCCCCC(=O)O [Example 6D, 7-((R)-2-((S,E)-3-hydroxyhept-1-en-4-yn-1-yl)-5-oxopyrrolidin-1-yl)heptanoic acid]	4.79	
O=C(O)CCCCCCN1C(=O)CC[C@@H]1/C=C/[C@@H](O)C#Cc1ccccc1 [Example 7C, 7-((R)-2-((R,E)-3-hydroxy-5-phenylpent-1-en-4-yn-1-yl)-5-oxopyrrolidin-1-yl)heptanoic acid]	22.3	> 10000
CCC#CCC(C)[C@H](O)/C=C/[C@H]1CCC(=O)N1CC#Cc1ccc(C(=O)O)s1 (stereo partly drawn) [Example 13C, 5-(3-((2R)-2-((3S,E)-3-hydroxy-4-methylnon-1-en-6-yn-1-yl)-5-oxopyrrolidin-1-yl)prop-1-yn-1-yl)thiophene-2-carboxylic acid]	18.3	> 10000
CCC#CCC(C)[C@@H](O)/C=C/[C@H]1CCC(=O)N1CC#Cc1ccc(C(=O)O)s1 (stereo partly drawn) [Example 13D, 5-(3-((2R)-2-((3R,E)-3-hydroxy-4-methylnon-1-en-6-yn-1-yl)-5-oxopyrrolidin-1-yl)prop-1-yn-1-yl)thiophene-2-carboxylic acid]		> 10000
CCC#CCC(C)[C@H](O)/C=C/[C@H]1CCC(=O)N1CCCc1ccc(C(=O)O)s1 (stereo partly drawn) [Example 17F, 5-(3-((R)-2-((3S,E)-3-hydroxy-4-methylnon-1-en-6-yn-1-yl)-5-oxopyrrolidin-1-yl)propyl)thiophene-2-carboxylic acid]	0.091	> 10000
CCC#CCC(C)[C@@H](O)/C=C/[C@H]1CCC(=O)N1CCCc1ccc(C(=O)O)s1 (stereo partly drawn) [Example 17G, 5-(3-((R)-2-((3R,E)-3-hydroxy-4-methylnon-1-en-6-yn-1-yl)-5-oxopyrrolidin-1-yl)propyl)thiophene-2-carboxylic acid]	18.4	> 10000
